{"source": "paper PMC12198407", "about": "“Preclinical and first-in-human of purinostat mesylate, a novel selective HDAC I/IIb inhibitor, in relapsed/refractory multiple myeloma and lymphoma” (Signal Transduction and Targeted Therapy, 2025)", "key": {"HDAC2": {"biological_target": "HDAC2 (Homo sapiens, UniProt Q92769)", "sequence (Q92769 whole entry)": "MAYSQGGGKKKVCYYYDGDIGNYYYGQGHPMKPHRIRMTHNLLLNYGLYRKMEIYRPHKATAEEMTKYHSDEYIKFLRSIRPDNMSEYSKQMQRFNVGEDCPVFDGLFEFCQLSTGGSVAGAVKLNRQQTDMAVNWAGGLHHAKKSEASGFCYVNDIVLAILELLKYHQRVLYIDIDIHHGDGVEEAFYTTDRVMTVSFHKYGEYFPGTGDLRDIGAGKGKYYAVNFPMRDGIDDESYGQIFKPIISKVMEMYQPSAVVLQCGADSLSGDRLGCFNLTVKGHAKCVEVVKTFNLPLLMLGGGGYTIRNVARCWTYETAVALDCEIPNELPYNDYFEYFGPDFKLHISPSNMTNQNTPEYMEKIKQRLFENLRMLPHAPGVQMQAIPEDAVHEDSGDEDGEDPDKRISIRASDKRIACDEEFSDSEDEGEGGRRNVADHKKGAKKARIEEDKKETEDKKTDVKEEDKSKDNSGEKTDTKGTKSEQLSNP", "experiment": "HDAC enzyme activity in vitro", "format": "biochemical"}, "HDAC5": {"biological_target": "HDAC5 (Homo sapiens, UniProt Q9UQL6)", "sequence (Q9UQL6 whole entry)": "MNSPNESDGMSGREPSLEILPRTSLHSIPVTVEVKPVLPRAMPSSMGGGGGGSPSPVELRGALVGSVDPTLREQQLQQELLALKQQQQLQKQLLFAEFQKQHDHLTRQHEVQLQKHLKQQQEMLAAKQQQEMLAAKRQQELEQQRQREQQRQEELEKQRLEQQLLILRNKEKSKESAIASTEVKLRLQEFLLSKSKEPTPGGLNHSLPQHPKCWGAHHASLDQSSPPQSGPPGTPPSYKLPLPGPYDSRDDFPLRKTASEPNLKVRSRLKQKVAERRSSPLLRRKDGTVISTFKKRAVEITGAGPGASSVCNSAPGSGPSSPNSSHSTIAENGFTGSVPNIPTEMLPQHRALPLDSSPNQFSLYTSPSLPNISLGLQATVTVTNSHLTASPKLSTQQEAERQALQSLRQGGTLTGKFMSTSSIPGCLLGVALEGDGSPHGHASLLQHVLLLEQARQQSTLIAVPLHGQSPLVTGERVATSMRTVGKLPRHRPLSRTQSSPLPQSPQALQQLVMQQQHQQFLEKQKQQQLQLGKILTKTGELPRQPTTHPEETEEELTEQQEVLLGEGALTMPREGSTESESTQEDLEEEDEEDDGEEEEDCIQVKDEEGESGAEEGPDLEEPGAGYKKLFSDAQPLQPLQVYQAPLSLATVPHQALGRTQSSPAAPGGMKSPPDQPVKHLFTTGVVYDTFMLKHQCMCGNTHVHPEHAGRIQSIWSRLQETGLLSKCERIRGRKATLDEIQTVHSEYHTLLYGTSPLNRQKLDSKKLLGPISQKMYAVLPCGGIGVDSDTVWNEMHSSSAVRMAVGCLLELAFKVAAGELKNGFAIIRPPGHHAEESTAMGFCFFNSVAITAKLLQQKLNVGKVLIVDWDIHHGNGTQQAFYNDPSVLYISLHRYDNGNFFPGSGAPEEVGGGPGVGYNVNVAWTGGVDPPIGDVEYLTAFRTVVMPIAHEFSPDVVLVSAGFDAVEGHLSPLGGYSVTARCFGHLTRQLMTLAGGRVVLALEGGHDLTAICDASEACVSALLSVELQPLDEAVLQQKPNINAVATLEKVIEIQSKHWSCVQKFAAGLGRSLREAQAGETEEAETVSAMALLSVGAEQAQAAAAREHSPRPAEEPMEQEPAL", "experiment": "HDAC enzyme activity in vitro", "format": "biochemical"}, "HDAC9": {"biological_target": "HDAC9 (Homo sapiens, UniProt Q9UKV0)", "sequence (Q9UKV0 whole entry)": "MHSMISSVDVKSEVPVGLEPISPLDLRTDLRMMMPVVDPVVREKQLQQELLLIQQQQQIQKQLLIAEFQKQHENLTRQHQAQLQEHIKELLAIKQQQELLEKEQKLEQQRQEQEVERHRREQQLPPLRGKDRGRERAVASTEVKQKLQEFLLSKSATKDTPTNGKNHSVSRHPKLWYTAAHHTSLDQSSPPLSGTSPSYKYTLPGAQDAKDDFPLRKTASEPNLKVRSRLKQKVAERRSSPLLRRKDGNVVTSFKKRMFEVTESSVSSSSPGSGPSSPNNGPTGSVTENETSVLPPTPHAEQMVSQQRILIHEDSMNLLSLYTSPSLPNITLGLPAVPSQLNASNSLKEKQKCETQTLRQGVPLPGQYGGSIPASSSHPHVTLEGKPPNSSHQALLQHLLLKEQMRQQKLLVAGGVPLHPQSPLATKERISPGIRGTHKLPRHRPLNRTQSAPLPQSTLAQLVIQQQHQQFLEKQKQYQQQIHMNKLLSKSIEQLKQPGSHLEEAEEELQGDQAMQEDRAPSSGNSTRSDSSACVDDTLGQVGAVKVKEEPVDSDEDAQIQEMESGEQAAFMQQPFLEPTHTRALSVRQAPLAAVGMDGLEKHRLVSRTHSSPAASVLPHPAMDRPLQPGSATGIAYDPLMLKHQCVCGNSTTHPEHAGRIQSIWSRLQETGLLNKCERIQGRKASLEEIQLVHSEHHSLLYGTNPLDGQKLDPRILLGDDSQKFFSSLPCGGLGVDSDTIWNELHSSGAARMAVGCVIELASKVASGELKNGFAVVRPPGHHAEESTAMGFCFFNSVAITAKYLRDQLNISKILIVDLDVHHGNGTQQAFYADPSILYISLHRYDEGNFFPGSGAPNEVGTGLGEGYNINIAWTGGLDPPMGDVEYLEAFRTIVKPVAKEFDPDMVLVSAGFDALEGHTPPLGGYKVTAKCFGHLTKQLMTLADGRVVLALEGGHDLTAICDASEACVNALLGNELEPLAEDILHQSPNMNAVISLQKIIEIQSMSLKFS", "experiment": "HDAC enzyme activity in vitro", "format": "biochemical"}, "AMO1": {"test_system": "AMO1", "experiment": "Cell viability CCK8", "format": "cell-based", "settings": "Homo sapiens; AMO1, 72 h; no unit in table; read-out: Antiproliferative activity IC50", "procedure": "(§1) PM, panobinostat, Pom and DXM were dissolved in DMSO and stored at -20°C freezer. Cells were seeded at a density of 1.0-3.0 × 10^4 cells/well/100 μL in 96-well plates. After overnight incubation, cells were treated with the drug-containing culture medium for 24, 48, or 72 hours, and cell viability was measured using CCK8 (Oriscience, Chengdu, China) at the indicated time points with Biotek Cytation 3 at a wavelength of 450 nm. The IC50 values were calculated using GraphPad Prism 9.4.1, and Calcusyn 2.0 software was employed to calculate the CI values."}, "ARD": {"test_system": "ARD", "experiment": "Cell viability CCK8", "format": "cell-based", "settings": "Homo sapiens, 72 h, no unit in table, read-out: Antiproliferative activity IC50", "procedure": "as §1"}, "Daudi": {"test_system": "Daudi", "experiment": "Cell viability CCK8", "format": "cell-based", "settings": "Homo sapiens, 72 h, no unit in table, read-out: Antiproliferative activity IC50", "procedure": "as §1"}, "KMS-11": {"test_system": "KMS-11", "experiment": "Cell viability CCK8", "format": "cell-based", "settings": "Homo sapiens; KMS-11, 72 h; no unit in table; read-out: Antiproliferative activity IC50", "procedure": "as §1"}, "Karpas299": {"test_system": "Karpas299", "experiment": "Cell viability CCK8", "format": "cell-based", "settings": "Homo sapiens, KARPAS-299; Karpas299, 72 h; no unit in table; read-out: Antiproliferative activity IC50", "procedure": "as §1"}, "MM1R": {"test_system": "MM1R", "experiment": "Cell viability CCK8", "format": "cell-based", "settings": "Homo sapiens, MM.1R, 72 h, no unit in table, read-out: Antiproliferative activity IC50", "procedure": "as §1"}, "MM1S": {"test_system": "MM1S", "experiment": "Cell viability CCK8", "format": "cell-based", "settings": "Homo sapiens, MM1.S, 72 h, no unit in table (b9: nM), read-out: Antiproliferative activity IC50", "procedure": "as §1"}, "NKYS": {"test_system": "NKYS", "experiment": "Cell viability CCK8", "format": "cell-based", "settings": "Homo sapiens, 72 h, no unit in table, read-out: Antiproliferative activity IC50", "procedure": "as §1"}, "OPM2": {"test_system": "OPM2", "experiment": "Cell viability CCK8", "format": "cell-based", "settings": "Homo sapiens, OPM-2; OPM2, 72 h; no unit in table; read-out: Antiproliferative activity IC50", "procedure": "as §1"}, "RL": {"test_system": "RL", "experiment": "Cell viability CCK8", "format": "cell-based", "settings": "Homo sapiens, 72 h, no unit in table, read-out: Antiproliferative activity IC50", "procedure": "as §1"}, "RPMI-8226R": {"test_system": "RPMI-8226R", "experiment": "Cell viability CCK8", "format": "cell-based", "settings": "Homo sapiens, 72 h, no unit in table, read-out: Antiproliferative activity IC50", "procedure": "as §1"}, "RPMI-8226": {"test_system": "RPMI-8226", "experiment": "Cell viability CCK8", "format": "cell-based", "settings": "Homo sapiens; RPMI-8226, 72 h; no unit in table; read-out: Antiproliferative activity IC50", "procedure": "as §1"}, "Raji": {"test_system": "Raji", "experiment": "Cell viability CCK8", "format": "cell-based", "settings": "Homo sapiens, 72 h, no unit in table, read-out: Antiproliferative activity IC50", "procedure": "as §1"}, "Ramos": {"test_system": "Ramos", "experiment": "Cell viability CCK8", "format": "cell-based", "settings": "Homo sapiens, 72 h, no unit in table, read-out: Antiproliferative activity IC50", "procedure": "as §1"}, "SUDHL-4": {"test_system": "SUDHL-4", "experiment": "Cell viability CCK8", "format": "cell-based", "settings": "Homo sapiens, SU-DHL-4; SUDHL-4, 72 h; no unit in table; read-out: Antiproliferative activity IC50", "procedure": "as §1"}, "TMD-8": {"test_system": "TMD-8", "experiment": "Cell viability CCK8", "format": "cell-based", "settings": "Homo sapiens, TMD8; TMD-8, 72 h; no unit in table; read-out: Antiproliferative activity IC50", "procedure": "as §1"}, "[1]": {"test_system": "diffuse large B-cell lymphoma (DLBCL) cells from patient C", "experiment": "Cell apoptosis analysis, primary cells", "format": "cell-based, human", "settings": "5 nM, 48 h", "procedure": "(§2) CD138^+, CD38^+, or CD20^+ primary cells were obtained from plasma cell leukemia patients and DLBCL patients who had relapsed after multiple drug therapies. These patient samples were sourced from West China Hospital and had been approved by the clinical ethics committee of West China Hospital of Sichuan University (Chengdu, China). The clinical information of these patients was summarized in Supplementary Table 2. The patient primary cells were cultured in 6-well plates at a density of 1×10^6 cells/mL, and treated with control, PM, panobinostat, Pom and DXM at indicated concentrations for 48 hours. CD138, CD38, and CD20 monoclonal antibodies, Annexin V-APC and 7AAD apoptosis detection kits were used following the manufacturer’s instructions. The apoptosis cells were analyzed by flow cytometry (Thermo, AttuneTMNxT)."}, "[2]": {"test_system": "primary MM cells from relapsed patients A and B", "experiment": "Cell apoptosis analysis, primary cells", "format": "cell-based, human", "settings": "5 nM, 48 h", "procedure": "as §2"}, "MM1S xenograft": {"test_system": "MM1S xenograft", "experiment": "MM1S xenograft mouse model", "format": "in vivo, NOD-SCID mice", "settings": "for median survival time: satellite group, death = tumor 1500 mm³"}, "[3]": {"test_system": "class I HDAC substrates histone H3 and H4 in SUDHL-6, Daudi, Raji, Ramos, RPMI-8226", "experiment": "Cellular acetylation of histone H3 and H4", "format": "cell-based, human", "source_text": "The results of these cell experiments were consistent with the in vitro enzyme activity assay results."}, "CYP2B6": {"biological_target": "T1, CYP2B6 (Homo sapiens, UniProt P20813)", "T1 construct": "human liver microsomal cytochrome P450 isoenzymes; from tissue; host or cells: human liver microsomes", "T1 sequence (P20813 whole entry)": "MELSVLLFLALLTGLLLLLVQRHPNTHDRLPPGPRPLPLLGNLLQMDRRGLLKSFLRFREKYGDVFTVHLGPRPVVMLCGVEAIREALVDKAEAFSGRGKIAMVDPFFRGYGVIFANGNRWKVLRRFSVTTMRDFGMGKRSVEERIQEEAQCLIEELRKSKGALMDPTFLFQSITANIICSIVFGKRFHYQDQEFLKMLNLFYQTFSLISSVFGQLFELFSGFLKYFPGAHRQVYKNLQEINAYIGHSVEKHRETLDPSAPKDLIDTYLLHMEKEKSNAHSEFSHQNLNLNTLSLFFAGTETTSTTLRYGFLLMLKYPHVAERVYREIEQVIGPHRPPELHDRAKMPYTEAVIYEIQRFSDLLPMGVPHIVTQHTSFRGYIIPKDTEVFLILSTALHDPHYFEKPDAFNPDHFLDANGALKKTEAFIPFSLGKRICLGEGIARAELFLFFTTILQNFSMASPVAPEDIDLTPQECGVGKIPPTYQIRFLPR", "experiment": "CYP inhibition, human liver microsomes", "format": "in vitro ADME"}, "CYP2C9": {"biological_target": "T2, CYP2C9 (Homo sapiens, UniProt P11712)", "T2 construct": "human liver microsomal cytochrome P450 isoenzymes; from tissue; host or cells: human liver microsomes", "T2 sequence (P11712 whole entry)": "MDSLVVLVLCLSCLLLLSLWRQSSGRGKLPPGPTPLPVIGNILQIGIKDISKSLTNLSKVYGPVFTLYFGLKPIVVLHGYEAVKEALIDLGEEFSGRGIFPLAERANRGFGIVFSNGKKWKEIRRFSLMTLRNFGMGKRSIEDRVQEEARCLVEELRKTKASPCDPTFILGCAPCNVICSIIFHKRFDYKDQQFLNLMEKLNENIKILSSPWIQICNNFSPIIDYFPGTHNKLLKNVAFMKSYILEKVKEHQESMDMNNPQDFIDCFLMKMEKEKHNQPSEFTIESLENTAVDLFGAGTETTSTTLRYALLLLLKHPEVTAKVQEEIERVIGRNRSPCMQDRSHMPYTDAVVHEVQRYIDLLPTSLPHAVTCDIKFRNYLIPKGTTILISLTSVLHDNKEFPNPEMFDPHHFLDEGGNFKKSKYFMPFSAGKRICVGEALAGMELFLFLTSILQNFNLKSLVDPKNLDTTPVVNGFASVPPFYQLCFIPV", "experiment": "CYP inhibition, human liver microsomes", "format": "in vitro ADME"}}}
{"compound": "CN(Cc1nc2c(N3CCOCC3)nc(-c3ccc(N)cc3)nc2n1C)c1ncc(C(=O)NO)cn1.CS(=O)(=O)O", "note": "[PM, 2-(((2-(4-Aminophenyl)-9-methyl-6-(4-morpholinyl)-9H-purine-8-yl)methyl)methylamino)-N-hydroxy-5-pyrimidine-carboxamide Mesylate]", "values": [{"measurement": "IC50", "setting": "HDAC2", "result": 1.4, "unit": "nM"}, {"measurement": "IC50", "setting": "HDAC5", "result": 426, "unit": "nM"}, {"measurement": "IC50", "setting": "HDAC9", "result": 622, "unit": "nM"}, {"measurement": "IC50", "setting": "AMO1", "result": "1.78 ± 0.14", "unit": "nM"}, {"measurement": "IC50", "setting": "ARD", "result": "0.42 ± 0.04", "unit": "nM"}, {"measurement": "IC50", "setting": "Daudi", "result": "0.73 ± 0.51", "unit": "nM"}, {"measurement": "IC50", "setting": "KMS-11", "result": "1.99 ± 0.21", "unit": "nM"}, {"measurement": "IC50", "setting": "Karpas299", "result": "1.16 ± 0.14", "unit": "nM"}, {"measurement": "IC50", "setting": "MM1R", "result": "0.33 ± 0.01", "unit": "nM"}, {"measurement": "IC50", "setting": "MM1S", "result": "0.47 ± 0.02", "unit": "nM"}, {"measurement": "IC50", "setting": "NKYS", "result": "0.77 ± 0.07", "unit": "nM"}, {"measurement": "IC50", "setting": "OPM2", "result": "1.78 ± 0.13", "unit": "nM"}, {"measurement": "IC50", "setting": "RL", "result": "1.27 ± 0.14", "unit": "nM"}, {"measurement": "IC50", "setting": "RPMI-8226R", "result": "2.02 ± 0.3", "unit": "nM"}, {"measurement": "IC50", "setting": "RPMI-8226", "result": "2.42 ± 0.4", "unit": "nM"}, {"measurement": "IC50", "setting": "Raji", "result": "1.96 ± 0.18", "unit": "nM"}, {"measurement": "IC50", "setting": "Ramos", "result": "1.24 ± 0.47", "unit": "nM"}, {"measurement": "IC50", "setting": "SUDHL-4", "result": "0.73 ± 0.05", "unit": "nM"}, {"measurement": "IC50", "setting": "TMD-8", "result": "0.99 ± 0.14", "unit": "nM"}, {"measurement": "apoptosis", "setting": "[1]", "result": 82.1, "unit": "%"}, {"measurement": "apoptosis", "setting": "[2]; patient A", "result": 92.9, "unit": "%"}, {"measurement": "apoptosis", "setting": "[2]; patient B", "result": 82.0, "unit": "%"}, {"measurement": "relative tumor growth rate T/C", "setting": "MM1S xenograft; 2.5 mg/kg", "result": 49.9, "unit": "%"}, {"measurement": "tumor inhibition rate", "setting": "MM1S xenograft; 2.5 mg/kg i.v. three times a week", "result": 55.67, "unit": "%"}, {"measurement": "relative tumor growth rate T/C", "setting": "MM1S xenograft; 5 mg/kg", "result": 32.0, "unit": "%"}, {"measurement": "tumor inhibition rate", "setting": "MM1S xenograft; 5 mg/kg i.v. three times a week", "result": 64.39, "unit": "%"}, {"measurement": "relative tumor growth rate T/C", "setting": "MM1S xenograft; 10 mg/kg", "result": 21.8, "unit": "%"}, {"measurement": "tumor inhibition rate", "setting": "MM1S xenograft; 10 mg/kg i.v. three times a week", "result": 71.76, "unit": "%"}, {"measurement": "relative tumor growth rate T/C", "setting": "MM1S xenograft; 20 mg/kg", "result": 18.3, "unit": "%"}, {"measurement": "tumor inhibition rate", "setting": "MM1S xenograft; 20 mg/kg i.v. three times a week", "result": 76.44, "unit": "%"}, {"measurement": "median survival time", "setting": "MM1S xenograft; 5 mg/kg", "result": 29.0, "unit": "days"}, {"measurement": "median survival time", "setting": "MM1S xenograft; 10 mg/kg", "result": 34.5, "unit": "days"}, {"measurement": "concentration inducing increased acetylation of histone H3 and H4", "setting": "[3]", "result": "0.3 to 1", "unit": "nM"}, {"measurement": "IC50", "setting": "CYP2B6", "result": "> 10000", "unit": "nM"}, {"measurement": "IC50", "setting": "CYP2C9", "result": "> 10000", "unit": "nM"}]}
